In publication PMC9572541, “Design, Synthesis and Biological Evaluation of Novel and Potent Protein Arginine Methyltransferases 5 Inhibitors for Cancer Therapy” (Molecules, 2022):

Molecular target: T1, PRMT5 (Homo sapiens, UniProt O14744)
T1 construct: The final concentrations of PRMT5 enzyme: 2.5 nm/L
Experiment: PRMT5 enzymatic activity inhibition assay (radioactive methylation, 3H-SAM to H4R3 peptide)
Format: biochemical
Conditions: 100 nM compound; read-out: Inhibition Rate% @100 nM
Method: The PRMT5 enzymatic activity assay was conducted by Chempartner Life science. The final concentrations of PRMT5 enzyme: 2.5 nm/L; ^3H-SAM: 0.3 μM/L; histone peptide (H4R3S1ac): 0.3 μM/L. The protocol of radioactive methylation assay was as follows: (1) Prepare 1× assay buffer (modified Tris Buffer). (2) Transfer compounds to assay plate using Echo in 100% DMSO. DMSO’s final fraction is 1%. (3) Prepare enzyme and ^3H-SAM Mix solution in 1× assay buffer. (4) Prepare substrate (peptide sequence Ac-[…]-K(Biotin)) solution in 1× assay buffer. (5) Transfer 15 μL of enzyme and ^3H-SAM solution to assay plate. (6) Incubate at room temperature for 60 min. (7) Add 10 μL of substrate solution to each well to start the reaction, and for low control transfer 10 μL of 1× assay buffer. (8) Incubate at room temperature for 120 min. (9) Add cold SAM in 1× assay buffer to make the stop mix. (10) Stop reaction with addition of 5 µL per well of stop solution. (11) Transfer 25 µL of volume per well to Flash plate from assay plate. (12) Incubate for 1 h minimum at room temperature.
(13) Read plate on Micro beta. (14) Data process—get the data in Excel to obtain inhibition values using Equation (1).Inhibitory rate% = (Max-Signal)/ (Max-Min) × 100(1)
Fit the data in XL-Fit to obtain IC50 values using Equation (2): Y = Bottom + (Top-Bottom)/(1 + (IC50/X) […]) Y is% inhibition and X is compound concentration(2)

T1 sequence (O14744 whole entry): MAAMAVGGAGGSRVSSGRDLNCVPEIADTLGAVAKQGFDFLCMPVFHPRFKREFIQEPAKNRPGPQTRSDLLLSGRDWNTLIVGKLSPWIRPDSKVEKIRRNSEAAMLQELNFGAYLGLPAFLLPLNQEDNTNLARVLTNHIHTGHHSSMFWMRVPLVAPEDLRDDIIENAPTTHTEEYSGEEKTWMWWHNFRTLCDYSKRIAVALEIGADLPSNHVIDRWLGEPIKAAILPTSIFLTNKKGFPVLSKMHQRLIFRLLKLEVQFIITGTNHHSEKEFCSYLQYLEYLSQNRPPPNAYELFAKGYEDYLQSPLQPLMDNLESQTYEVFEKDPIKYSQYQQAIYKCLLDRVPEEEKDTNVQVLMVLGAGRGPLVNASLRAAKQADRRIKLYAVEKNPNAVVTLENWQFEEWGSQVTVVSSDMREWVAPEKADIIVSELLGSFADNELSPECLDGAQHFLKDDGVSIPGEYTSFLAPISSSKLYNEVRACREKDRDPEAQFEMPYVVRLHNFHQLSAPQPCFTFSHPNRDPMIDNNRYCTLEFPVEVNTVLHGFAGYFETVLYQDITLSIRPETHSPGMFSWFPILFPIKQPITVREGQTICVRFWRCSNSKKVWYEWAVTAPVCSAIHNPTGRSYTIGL
T1 sequence (Q9BQA1 whole entry partner): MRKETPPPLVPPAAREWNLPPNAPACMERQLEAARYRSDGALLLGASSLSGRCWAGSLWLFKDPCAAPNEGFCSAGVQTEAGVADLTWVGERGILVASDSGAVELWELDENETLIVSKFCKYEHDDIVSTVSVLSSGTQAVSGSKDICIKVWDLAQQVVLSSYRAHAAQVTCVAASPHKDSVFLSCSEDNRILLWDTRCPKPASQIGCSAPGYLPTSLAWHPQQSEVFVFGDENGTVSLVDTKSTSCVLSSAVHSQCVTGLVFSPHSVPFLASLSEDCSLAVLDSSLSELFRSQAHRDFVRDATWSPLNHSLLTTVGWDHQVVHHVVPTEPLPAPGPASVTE

inhibition at 0.1 µM [%] | Structure (SMILES)
64 ± 1.5 | COc1ccc2[nH]c3ccc(C(=O)NC[C@H](O)CN4CCc5ccccc5C4)cc3c2c1 [Compound 4, (S)-N-(3-(3,4-dihydroisoquinolin-2(1H)-yl)-2-hydroxypropyl)-6-methoxy-9H-carbazole-3-carboxamide]
65 ± 0.2 | O=C(NC[C@H](O)CN1CCc2ccccc2C1)c1ccc2[nH]c3ccc(F)cc3c2c1 [Compound 3, (S)-N-(3-(3,4-dihydroisoquinolin-2(1H)-yl)-2-hydroxypropyl)-6-fluoro-9H-carbazole-3-carboxamide]
74 ± 2 | O=C(NC[C@H](O)CN1CCc2ccccc2C1)c1ccc2[nH]c3c(c2c1)CCC3 [Compound 8, (S)-N-(3-(3,4-dihydroisoquinolin-2(1H)-yl)-2-hydroxypropyl)-1,2,3,4-tetrahydrocyclopenta[b]indole-7-carboxamide]
58 ± 3.7 | CCC1CCc2[nH]c3ccc(C(=O)NC[C@H](O)CN4CCc5ccccc5C4)cc3c2C1 (stereo partly drawn) [Compound 12, N-((S)-3-(3,4-dihydroisoquinolin-2(1H)-yl)-2-hydroxypropyl)-3-ethyl-2,3,4,9-tetrahydro-1H-carbazole-6-carboxamide]
63 ± 3.2 | Cn1c2ccccc2c2cc(C(=O)NC[C@H](O)CN3CCc4ccccc4C3)ccc21 [Compound 6, (S)-N-(3-(3,4-dihydroisoquinolin-2(1H)-yl)-2-hydroxypropyl)-9-methyl-9H-carbazole-3-carboxamide]
48 ± 1.2 | CN1CCc2[nH]c3ccc(C(=O)NC[C@H](O)CN4CCc5ccccc5C4)cc3c2C1 [Compound 21, (S)-N-(3-(3,4-dihydroisoquinolin-2(1H)-yl)-2-hydroxypropyl)-2-methyl-2,3,4,5-tetrahydro-1H-pyrido[4,3-b]indole-8-carboxamide]
52 ± 4.8 | O=C(NC[C@H](O)CN1CCc2ccccc2C1)c1ccc2[nH]c3c(c2c1)CN(C1CC1)CC3 [Compound 23, (S)-2-cyclopropyl-N-(3-(3,4-dihydroisoquinolin-2(1H)-yl)-2-hydroxypropyl)-2,3,4,5-tetrahydro-1H-pyrido[4,3-b]indole-8-carboxamide]
63 ± 4.4 | CCCN1CCc2[nH]c3ccc(C(=O)NC[C@H](O)CN4CCc5ccccc5C4)cc3c2C1 [Compound 24, (S)-N-(3-(3,4-dihydroisoquinolin-2(1H)-yl)-2-hydroxypropyl)-2-propyl-2,3,4,5-tetrahydro-1H-pyrido[4,3-b]indole-8-carboxamide]
51 ± 4.2 | CC(C)N1CCc2[nH]c3ccc(C(=O)NC[C@H](O)CN4CCc5ccccc5C4)cc3c2C1 [Compound 25, (S)-N-(3-(3,4-dihydroisoquinolin-2(1H)-yl)-2-hydroxypropyl)-2-isopropyl-2,3,4,5-tetrahydro-1H-pyrido[4,3-b]indole-8-carboxamide]
70 ± 0.2 | CC(C)n1c2c(c3cc(C(=O)NC[C@H](O)CN4CCc5ccccc5C4)ccc31)CCCC2 [Compound 16, (S)-N-(3-(3,4-dihydroisoquinolin-2(1H)-yl)-2-hydroxypropyl)-9-isopropyl-2,3,4,9-tetrahydro-1H-carbazole-6-carboxamide]
69 ± 7 | O=C(NC[C@H](O)CN1CCc2ccccc2C1)c1ccc2[nH]c3ccc(Cl)cc3c2c1 [Compound 5, (S)-6-chloro-N-(3-(3,4-dihydroisoquinolin-2(1H)-yl)-2-hydroxypropyl)-9H-carbazole-3-carboxamide]
59 ± 1.4 | CC(C)CN1CCc2[nH]c3ccc(C(=O)NC[C@H](O)CN4CCc5ccccc5C4)cc3c2C1 [Compound 26, (S)-N-(3-(3,4-dihydroisoquinolin-2(1H)-yl)-2-hydroxypropyl)-2-isobutyl-2,3,4,5-tetrahydro-1H-pyrido[4,3-b]indole-8-carboxamide]
59 ± 0.4 | Cc1ccc2[nH]c3ccc(C(=O)NC[C@H](O)CN4CCc5ccccc5C4)cc3c2c1 [Compound 2, (S)-N-(3-(3,4-dihydroisoquinolin-2(1H)-yl)-2-hydroxypropyl)-6-methyl-9H-carbazole-3-carboxamide]
64 ± 10.7 | CCN1CCc2[nH]c3ccc(C(=O)NC[C@H](O)CN4CCc5ccccc5C4)cc3c2C1 [Compound 22, (S)-N-(3-(3,4-dihydroisoquinolin-2(1H)-yl)-2-hydroxypropyl)-2-ethyl-2,3,4,5-tetrahydro-1H-pyrido[4,3-b]indole-8-carboxamide]
73 ± 4.1 | O=C(NC[C@H](O)CN1CCc2ccccc2C1)c1ccc2[nH]c3c(c2c1)CCCCC3 [Compound 9, (S)-N-(3-(3,4-dihydroisoquinolin-2(1H)-yl)-2-hydroxypropyl)-5,6,7,8,9,10-hexahydrocyclohepta[b]indole-2-carboxamide]
75 ± 1.6 | CC(C)Cn1c2c(c3cc(C(=O)NC[C@H](O)CN4CCc5ccccc5C4)ccc31)CCCC2 [Compound 17, (S)-N-(3-(3,4-dihydroisoquinolin-2(1H)-yl)-2-hydroxypropyl)-9-isobutyl-2,3,4,9-tetrahydro-1H-carbazole-6-carboxamide]
67 ± 3.5 | CC1CCc2[nH]c3ccc(C(=O)NC[C@H](O)CN4CCc5ccccc5C4)cc3c2C1 (stereo partly drawn) [Compound 11, N-((S)-3-(3,4-dihydroisoquinolin-2(1H)-yl)-2-hydroxypropyl)-3-methyl-2,3,4,9-tetrahydro-1H-carbazole-6-carboxamide]
60 ± 4.6 | O=C(NC[C@H](O)CN1CCc2ccccc2C1)c1ccc2c(c1)c1c(n2CC2CC2)CCCC1 [Compound 18, (S)-9-(cyclopropylmethyl)-N-(3-(3,4-dihydroisoquinolin-2(1H)-yl)-2-hydroxypropyl)-2,3,4,9-tetrahydro-1H-carbazole-6-carboxamide]
